This note sets out measurements from patent US20040254100A1, “Use of thiostrepton as an anti-mycobacterial agent” (priority 2000, published 2004).

This assay deals with M. tuberculosis H37Ra in murine alveolar macrophage-like cell line MH-S. In words: microbe, parasite or virus in culture. In kind it is cell-based. The settings on record: Mycobacterium tuberculosis, 24 h.

In general, IC50 refers to the concentration that inhibits the measured activity by half. A high value points to lower potency.

`C=C(NC(=O)C(=C)NC(=O)c1csc(C2=N[C@@H]3c4csc(n4)[C@H]4NC(=O)c5csc(n5)[C@H]([C@](C)(O)[C@@H](C)O)NC(=O)[C@H]5CSC(=N5)/C(=C/C)NC(=O)[C@H]([C@@H](C)O)NC(=O)c5csc(n5)[C@]3(CC2)NC(=O)[C@H](C)NC(=O)C(=C)NC(=O)[C@H](C)NC(=O)[C@H]([C@@H](C)CC)N[C@@H]2C=Cc3c([C@H](C)O)cc(nc3[C@H]2O)C(=O)O[C@@H]4C)n1)C(N)=O` [thiostrepton, Thiostrepton] came in with a concentration for half-maximal inhibition (IC50) of 30 nM.
